Type in all cases: in vivo
The subject of test [1] is GALC−/− mice. As to the kind of experiment: Lifespan (percentage of survival, Kaplan-Meier plot). To be noted: oral. The source says: Heterozygous animals were used only for breeding purposes and were not used in the study. Animal maintaining and experiments were in accordance with National Institute of Health guidelines and were approved by the Institutional Animal Care and Use committee of the Rush University of Medical Center, Chicago, IL. Treated and untreated mice were allowed to survive humanely as long as possible. When a mouse reached a moribund stage, it was sacrificed.
As discussed below, after 2 weeks of oral feeding, several parameters were monitored including locomotor activity followed by examining myelin status and glial activation in cerebellum and corpus callosum. Longevity of GALC^−/− mice after drug treatment was also examined. In that case, GALC^−/− mice were treated with the drugs daily until mice reached the moribund stage.
Mice were treated continually until they reached the moribund stage at which point they were humanely sacrificed.

Test [2] deals with GALC−/− mice. As to the kind of experiment: Open field locomotor activity. To be noted: oral, 15 days.
Experimental: The open field test was conducted for analyzing general motor activities of mice. Locomotor activities were monitored by open field performance and footprint analysis as described in previous studies. […] Mice were placed in the center of a square wooden open field arena (40×40 cm, 30 cm high walls) and allowed to explore freely for 5 min. The movements of the mice were recorded using a camera linked to the Noldus system and EthoVisionXT software. Several parameters including velocity, total distance moved, movement/center point frequency, body elongation, etc. were analyzed to assess the general locomotor activity.
Following 15 days of treatment, open field locomotor activities were measured. […] Parameters related to movement of animals were obtained from the software and presented as velocity center point (B), distance moved center point (C), movement-center point frequency (D), and body elongation (E).
Locomotor activity was monitored as in Example 5. Following 15 days of treatment, open field locomotor activities were measured. […] Parameters related to movement of animals were obtained from the software and presented as velocity center point (B), distance moved center point (C), movement-center point frequency (D), and body elongation (E).
Test [3] relates to GALC−/− mice. Description: Luxol fast blue (LFB) staining for myelin. Particulars: cerebellum and corpus callosum, oral, 15 days.
Text: Cerebellar and corpus callosum sections of paraformaldehyde-fixed brain tissues were stained with Luxol fast blue for myelin as described elsewhere. […] FIG. 5 similarly depicts luxol fast blue (LFB) staining of myelin in the cerebellum (A) and corpus callosum (B) of GALC^−/− mice following identical treatment. Results represent analysis of two different sections of each of five mice (n=5) per group. […] FIG. 13 similarly depicts luxol fast blue (LFB) staining of myelin in the cerebellum (A) and corpus callosum (B) of GALC^−/− mice following identical treatment. Results represent analysis of two different sections of each of five mice (n=5) per group.
Test [4] deals with GALC−/− mice. Description: Immunofluorescence (immunostaining) of brain sections for PLP, MFI. Particulars: cerebellum and corpus callosum, oral, 15 days.
Experimental: After 2 weeks of treatment, mice were anesthetized and perfused with PBS (pH 7.4) and then with 4% (w/v) paraformaldehyde solution in PBS. […] Briefly, brains were incubated in PBS containing 0.05% Tween 20 (PBST) and 10% sucrose for 3 h and then 30% sucrose overnight at 4° C. Hemisected brains was then embedded in O.C.T (Tissue Tech) at −80° C. and processed for conventional cryosectioning. Frozen cerebellar and corpus callosum sections (40 micron thick) were treated with cold ethanol (−20° C.) followed by two rinses in PBS, blocking with 3% bovine serum albumin in PBST and labeling with anti-PLP antibody. After three washes in PBST, sections were further incubated with Cy5 (Jackson ImmunoResearch Laboratories, Inc.). The samples were mounted and observed under the Olympus BX41 fluorescent microscope equipped with a Hamamatsu ORCA-03G camera. Captured images were calibrated with the scale bar and then opened in ImageJ software for further quantification analysis. […] The final MFI was analyzed after subtracting the value with the background signal of respective images.
DAPI was used to visualize nucleus. Mean fluorescence intensity (MFI) of PLP was quantified (C, cerebellum; D, corpus callosum) in two different sections of each of five mice (n=5) per group. […]
Test [5] concerns GALC−/− mice. As to the kind of experiment: Levels of myelin proteins PLP and MBP in brain by Western blot. Particulars: gemfibrozil 8 mg/kg/d alone or with vitamin A 150 IU/kg/d.
In test [6] the test system is GALC−/− mice. Description: Astroglial activation: GFAP and iNOS levels in brain by Western blot. To be noted: gemfibrozil 8 mg/kg/d alone or with vitamin A 150 IU/kg/d, oral, 15 days.
Setting [7] is: cerebellum, oral gavage, 15 days from 10 d of age, FIG. 2.
Setting [8] is: corpus callosum, oral, 15 days, FIG. 3.

The structures appear in SMILES notation.

As to `O=C(O)C=Cc1ccccc1` [cinnamic acid], the “lifespan (percentage of survival)” value in test [1] (cinnamic acid 25 and 50 mg/kg/day, until moribund stage, FIG. 17) is reported as “increases the lifespan”. For the same molecule, the “motor activity in open field versus vehicle treatment” value in test [2] (cinnamic acid 25 and 50 mg/kg/day, FIG. 16) was “increased”. Moreover, in test [3] (cinnamic acid 25 and 50 mg/kg/day, FIG. 13), the “myelin status by luxol fast blue (LFB) staining” value is reported as “protection of myelin”. The “myelin status by PLP immunostaining (MFI of PLP)” value in test [4] (cinnamic acid 25 and 50 mg/kg/day, FIG. 12) is “protecting myelin”.

As for `Cc1ccc(C)c(OCCCC(C)(C)C(=O)O)c1` [gemfibrozil], in test [5] (setting [7]), the “level of MBP (MBP/Actin relative to control)” value is recorded as “significantly increased” and the “level of PLP (PLP/Actin relative to control)” value is “significantly increased”. Moreover, in test [5] (setting [8]), the “level of MBP (MBP/Actin relative to control)” value is listed as “significantly increased” and the “level of PLP (PLP/Actin relative to control)” value was “significantly increased”. In addition, the “lifespan (percentage of survival)” value in test [1] (gemfibrozil 8 mg/kg/d alone or with vitamin A 150 IU/kg/d, daily until moribund stage, FIG. 9) was “increase the lifespan”. In test [2] (gemfibrozil 8 mg/kg/d alone or with vitamin A 150 IU/kg/d, FIG. 8), the “motor activity in open field versus vehicle treatment” value was “increased”. In test [6] (cerebellum, FIG. 6), the “level of GFAP (GFAP/Actin relative to control)” value was “significantly reduced” and the “level of iNOS (iNOS/Actin relative to control)” value is “significantly reduced”. For the same molecule, in test [6] (corpus callosum, FIG. 7), the “level of GFAP (GFAP/Actin relative to control)” value was “significantly reduced” and the “level of iNOS (iNOS/Actin relative to control)” value is listed as “significantly reduced”. For the same molecule, in test [3] (gemfibrozil 8 mg/kg/d alone or with vitamin A 150 IU/kg/d, FIG. 5), the “myelin status by luxol fast blue (LFB) staining” value was “protection of myelin”. Further, the “myelin status by PLP immunostaining (MFI of PLP)” value in test [4] (gemfibrozil 8 mg/kg/d alone or with vitamin A 150 IU/kg/d, FIG. 4) was “protecting myelin”.

The values above are taken from patent publication US20240082184A1, “IMPROVED TREATMENT FOR GLOBOID CELL LEUKODSYTROPHY OR KRABBE DISEASE” (priority 2021, published 2024).
